Assay results: patent US8759385B2, “Composition comprising azole fungicide and water soluble metal salt” (Conopco Inc., priority 2009, dated 2014)

Tested on: Trypsin
Test: anti-trypsin effect (normalised trypsin activity)
Format: biochemical
Conditions: control (trypsin only) = 1.0

Compound | Normalised activity (Climbazole 0.00391% alone) | Normalised activity (Climbazole 0.00781% alone) | Normalised activity (Climbazole 0.01563% alone) | Normalised activity (Climbazole 0.03125% alone) | Normalised activity (Climbazole 0.0625% alone) | Normalised activity (Climbazole 0.125% alone) | Normalised activity (Zinc gluconate 0.00156% alone) | Normalised activity (Zinc gluconate 0.003125% alone) | Normalised activity (Zinc gluconate 0.00625% alone)
CC(C)(C)C(=O)C(Oc1ccc(Cl)cc1)n1ccnc1 (stereo not drawn) [Climbazole] | 1.15 | 1.31 | 1.41 | 1.30 | 0.908 | 1.06 |  |  | 
Zinc gluconate |  |  |  |  |  |  | 1.03 | 0.957 | 0.8404
